# Experimental data published in ChEMBL document CHEMBL3994622, “Design and synthesis of new RAF kinase-inhibiting antiproliferative quinoline derivatives. Part 2: Diarylurea derivatives” (Eur J Med Chem, 2017).
# Test system: Malme-3M
# Experiment: Growth inhibition of human MALME-3M cells assessed as cell growth at 10 uM incubated for 48 hrs by sulforhodamine B assay relative to control
# Assay type: functional
# Conditions: read-out: Activity
row,SMILES,growth at 10 µM [%]
1,COc1cc2cc(Oc3ccc(NC(=O)Nc4cccc(C(F)(F)F)c4)cc3)c(C)nc2cc1OC,7.22

# Test system: OVCAR-5
# Experiment: Growth inhibition of human OVCAR5 cells assessed as cell growth at 10 uM incubated for 48 hrs by sulforhodamine B assay relative to control
# Assay type: functional
# Conditions: OVCAR-5, 48 h, read-out: Activity
row,SMILES,growth at 10 µM [%]
1,COc1cc2cc(Oc3ccc(NC(=O)Nc4cccc(C(F)(F)F)c4)cc3)c(C)nc2cc1OC,27.8

# Test system: SNB-19
# Experiment: Growth inhibition of human SNB19 cells assessed as cell growth at 10 uM incubated for 48 hrs by sulforhodamine B assay relative to control
# Assay type: functional
# Conditions: SNB-19, 48 h, read-out: Activity
row,SMILES,growth at 10 µM [%]
1,COc1cc2cc(Oc3ccc(NC(=O)Nc4cccc(C(F)(F)F)c4)cc3)c(C)nc2cc1OC,31.4

# Test system: MDA-MB-435
# Experiment: Growth inhibition of human MDA-MB-435 cells assessed as cell growth at 10 uM incubated for 48 hrs by sulforhodamine B assay relative to control
# Assay type: functional
# Conditions: MDA-MB-435, 48 h, read-out: Activity
row,SMILES,growth at 10 µM [%]
1,COc1cc2cc(Oc3ccc(NC(=O)Nc4cccc(C(F)(F)F)c4)cc3)c(C)nc2cc1OC,7.23

# Test system: NCI-H23
# Experiment: Growth inhibition of human NCI-H23 cells assessed as cell growth at 10 uM incubated for 48 hrs by sulforhodamine B assay relative to control
# Assay type: functional
# Conditions: NCI-H23, 48 h, read-out: Activity
row,SMILES,growth at 10 µM [%]
1,COc1cc2cc(Oc3ccc(NC(=O)Nc4cccc(C(F)(F)F)c4)cc3)c(C)nc2cc1OC,6.78

# Test system: A549
# Experiment: Growth inhibition of human A549/ATCC cells assessed as cell growth at 10 uM incubated for 48 hrs by sulforhodamine B assay relative to control
# Assay type: functional
# Conditions: A549, 48 h, read-out: Activity
row,SMILES,growth at 10 µM [%]
1,COc1cc2cc(Oc3ccc(NC(=O)Nc4cccc(C(F)(F)F)c4)cc3)c(C)nc2cc1OC,3.09

# Test system: HCT-15
# Experiment: Growth inhibition of human HCT15 cells assessed as cell growth at 10 uM incubated for 48 hrs by sulforhodamine B assay relative to control
# Assay type: functional
# Conditions: HCT-15, 48 h, read-out: Activity
row,SMILES,growth at 10 µM [%]
1,COc1cc2cc(Oc3ccc(NC(=O)Nc4cccc(C(F)(F)F)c4)cc3)c(C)nc2cc1OC,15.2

# Test system: OVCAR-4
# Experiment: Growth inhibition of human OVCAR4 cells assessed as cell growth at 10 uM incubated for 48 hrs by sulforhodamine B assay relative to control
# Assay type: functional
# Conditions: OVCAR-4, 48 h, read-out: Activity
row,SMILES,growth at 10 µM [%]
1,COc1cc2cc(Oc3ccc(NC(=O)Nc4cccc(C(F)(F)F)c4)cc3)c(C)nc2cc1OC,31.7

# Test system: HL-60(TB)
# Experiment: Growth inhibition of human HL-60(TB) cells assessed as cell growth at 10 uM incubated for 48 hrs by sulforhodamine B assay relative to control
# Assay type: functional
# Conditions: HL-60, 48 h, read-out: Activity
row,SMILES,growth at 10 µM [%]
1,COc1cc2cc(Oc3ccc(NC(=O)Nc4cccc(C(F)(F)F)c4)cc3)c(C)nc2cc1OC,-24.8

# Test system: HT-29
# Experiment: Growth inhibition of human HT-29 cells assessed as cell growth at 10 uM incubated for 48 hrs by sulforhodamine B assay relative to control
# Assay type: functional
# Conditions: HT-29, 48 h, read-out: Activity
row,SMILES,growth at 10 µM [%]
1,COc1cc2cc(Oc3ccc(NC(=O)Nc4cccc(C(F)(F)F)c4)cc3)c(C)nc2cc1OC,6.56

# Test system: SF-268
# Experiment: Growth inhibition of human SF268 cells assessed as cell growth at 10 uM incubated for 48 hrs by sulforhodamine B assay relative to control
# Assay type: functional
# Conditions: SF-268, 48 h, read-out: Activity
row,SMILES,growth at 10 µM [%]
1,COc1cc2cc(Oc3ccc(NC(=O)Nc4cccc(C(F)(F)F)c4)cc3)c(C)nc2cc1OC,29.2

# Test system: SK-MEL-5
# Experiment: Growth inhibition of human SK-MEL-5 cells assessed as cell growth at 10 uM incubated for 48 hrs by sulforhodamine B assay relative to control
# Assay type: functional
# Conditions: SK-MEL-5, 48 h, read-out: Activity
row,SMILES,growth at 10 µM [%]
1,COc1cc2cc(Oc3ccc(NC(=O)Nc4cccc(C(F)(F)F)c4)cc3)c(C)nc2cc1OC,-86.1

# Test system: LOX IMVI
# Experiment: Growth inhibition of human LOXIMVI cells assessed as cell growth at 10 uM incubated for 48 hrs by sulforhodamine B assay relative to control
# Assay type: functional
# Conditions: read-out: Activity
row,SMILES,growth at 10 µM [%]
1,COc1cc2cc(Oc3ccc(NC(=O)Nc4cccc(C(F)(F)F)c4)cc3)c(C)nc2cc1OC,9.78

# Test system: COLO 205
# Experiment: Growth inhibition of human COLO205 cells assessed as cell growth at 10 uM incubated for 48 hrs by sulforhodamine B assay relative to control
# Assay type: functional
# Conditions: COLO 205, 48 h, read-out: Activity
row,SMILES,growth at 10 µM [%]
1,COc1cc2cc(Oc3ccc(NC(=O)Nc4cccc(C(F)(F)F)c4)cc3)c(C)nc2cc1OC,-20.2

# Test system: IGROV-1
# Experiment: Growth inhibition of human IGROV1 cells assessed as cell growth at 10 uM incubated for 48 hrs by sulforhodamine B assay relative to control
# Assay type: functional
# Conditions: IGROV-1, 48 h, read-out: Activity
row,SMILES,growth at 10 µM [%]
1,COc1cc2cc(Oc3ccc(NC(=O)Nc4cccc(C(F)(F)F)c4)cc3)c(C)nc2cc1OC,8.77

# Test system: ACHN
# Experiment: Growth inhibition of human ACHN cells assessed as cell growth at 10 uM incubated for 48 hrs by sulforhodamine B assay relative to control
# Assay type: functional
# Conditions: read-out: Activity
row,SMILES,growth at 10 µM [%]
1,COc1cc2cc(Oc3ccc(NC(=O)Nc4cccc(C(F)(F)F)c4)cc3)c(C)nc2cc1OC,11.2

# Test system: MCF7
# Experiment: Growth inhibition of human MCF7 cells assessed as cell growth at 10 uM incubated for 48 hrs by sulforhodamine B assay relative to control
# Assay type: functional
# Conditions: MCF7, 48 h, read-out: Activity
row,SMILES,growth at 10 µM [%]
1,COc1cc2cc(Oc3ccc(NC(=O)Nc4cccc(C(F)(F)F)c4)cc3)c(C)nc2cc1OC,6.81

# Test system: K562
# Experiment: Growth inhibition of human K562 cells assessed as cell growth at 10 uM incubated for 48 hrs by sulforhodamine B assay relative to control
# Assay type: functional
# Conditions: K562, 48 h, read-out: Activity
row,SMILES,growth at 10 µM [%]
1,COc1cc2cc(Oc3ccc(NC(=O)Nc4cccc(C(F)(F)F)c4)cc3)c(C)nc2cc1OC,11.5

# Test system: T47D
# Experiment: Growth inhibition of human T47D cells assessed as cell growth at 10 uM incubated for 48 hrs by sulforhodamine B assay relative to control
# Assay type: functional
# Conditions: read-out: Activity
row,SMILES,growth at 10 µM [%]
1,COc1cc2cc(Oc3ccc(NC(=O)Nc4cccc(C(F)(F)F)c4)cc3)c(C)nc2cc1OC,27.8

# Test system: U-251
# Experiment: Growth inhibition of human U251 cells assessed as cell growth at 10 uM incubated for 48 hrs by sulforhodamine B assay relative to control
# Assay type: functional
# Conditions: U-251, 48 h, read-out: Activity
row,SMILES,growth at 10 µM [%]
1,COc1cc2cc(Oc3ccc(NC(=O)Nc4cccc(C(F)(F)F)c4)cc3)c(C)nc2cc1OC,-85.7

# Test system: SF-539
# Experiment: Growth inhibition of human SF539 cells assessed as cell growth at 10 uM incubated for 48 hrs by sulforhodamine B assay relative to control
# Assay type: functional
# Conditions: SF-539, 48 h, read-out: Activity
row,SMILES,growth at 10 µM [%]
1,COc1cc2cc(Oc3ccc(NC(=O)Nc4cccc(C(F)(F)F)c4)cc3)c(C)nc2cc1OC,11.7

# Test system: A498
# Experiment: Growth inhibition of human A498 cells assessed as cell growth at 10 uM incubated for 48 hrs by sulforhodamine B assay relative to control
# Assay type: functional
# Conditions: A498, 48 h, read-out: Activity
row,SMILES,growth at 10 µM [%]
1,COc1cc2cc(Oc3ccc(NC(=O)Nc4cccc(C(F)(F)F)c4)cc3)c(C)nc2cc1OC,21.7

# Test system: MDA-MB-468
# Experiment: Growth inhibition of human MDA-MB-468 cells assessed as cell growth at 10 uM incubated for 48 hrs by sulforhodamine B assay relative to control
# Assay type: functional
# Conditions: MDA-MB-468, 48 h, read-out: Activity
row,SMILES,growth at 10 µM [%]
1,COc1cc2cc(Oc3ccc(NC(=O)Nc4cccc(C(F)(F)F)c4)cc3)c(C)nc2cc1OC,-32.5

# Test system: CAKI-1
# Experiment: Growth inhibition of human Caki1 cells assessed as cell growth at 10 uM incubated for 48 hrs by sulforhodamine B assay relative to control
# Assay type: functional
# Conditions: CAKI-1, 48 h, read-out: Activity
row,SMILES,growth at 10 µM [%]
1,COc1cc2cc(Oc3ccc(NC(=O)Nc4cccc(C(F)(F)F)c4)cc3)c(C)nc2cc1OC,9.13

# Test system: NCI-H226
# Experiment: Growth inhibition of human NCI-H226 cells assessed as cell growth at 10 uM incubated for 48 hrs by sulforhodamine B assay relative to control
# Assay type: functional
# Conditions: NCI-H226, 48 h, read-out: Activity
row,SMILES,growth at 10 µM [%]
1,COc1cc2cc(Oc3ccc(NC(=O)Nc4cccc(C(F)(F)F)c4)cc3)c(C)nc2cc1OC,-23.5

# Test system: SF-295
# Experiment: Growth inhibition of human SF295 cells assessed as cell growth at 10 uM incubated for 48 hrs by sulforhodamine B assay relative to control
# Assay type: functional
# Conditions: SF-295, 48 h, read-out: Activity
row,SMILES,growth at 10 µM [%]
1,COc1cc2cc(Oc3ccc(NC(=O)Nc4cccc(C(F)(F)F)c4)cc3)c(C)nc2cc1OC,-15.1

# Test system: OVCAR-3
# Experiment: Growth inhibition of human OVCAR3 cells assessed as cell growth at 10 uM incubated for 48 hrs by sulforhodamine B assay relative to control
# Assay type: functional
# Conditions: OVCAR-3, 48 h, read-out: Activity
row,SMILES,growth at 10 µM [%]
1,COc1cc2cc(Oc3ccc(NC(=O)Nc4cccc(C(F)(F)F)c4)cc3)c(C)nc2cc1OC,-0.54

# Test system: 786-0
# Experiment: Growth inhibition of human 786-0 cells assessed as cell growth at 10 uM incubated for 48 hrs by sulforhodamine B assay relative to control
# Assay type: functional
# Conditions: 786-0, 48 h, read-out: Activity
row,SMILES,growth at 10 µM [%]
1,COc1cc2cc(Oc3ccc(NC(=O)Nc4cccc(C(F)(F)F)c4)cc3)c(C)nc2cc1OC,15.1

# Test system: HOP-92
# Experiment: Growth inhibition of human HOP92 cells assessed as cell growth at 10 uM incubated for 48 hrs by sulforhodamine B assay relative to control
# Assay type: functional
# Conditions: HOP-92, 48 h, read-out: Activity
row,SMILES,growth at 10 µM [%]
1,COc1cc2cc(Oc3ccc(NC(=O)Nc4cccc(C(F)(F)F)c4)cc3)c(C)nc2cc1OC,-29.5

# Test system: NCI-H460
# Experiment: Growth inhibition of human NCI-H460 cells assessed as cell growth at 10 uM incubated for 48 hrs by sulforhodamine B assay relative to control
# Assay type: functional
# Conditions: NCI-H460, 48 h, read-out: Activity
row,SMILES,growth at 10 µM [%]
1,COc1cc2cc(Oc3ccc(NC(=O)Nc4cccc(C(F)(F)F)c4)cc3)c(C)nc2cc1OC,2.68

# Test system: UACC-62
# Experiment: Growth inhibition of human UACC62 cells assessed as cell growth at 10 uM incubated for 48 hrs by sulforhodamine B assay relative to control
# Assay type: functional
# Conditions: UACC-62, 48 h, read-out: Activity
row,SMILES,growth at 10 µM [%]
1,COc1cc2cc(Oc3ccc(NC(=O)Nc4cccc(C(F)(F)F)c4)cc3)c(C)nc2cc1OC,14.5

# Test system: UO-31
# Experiment: Growth inhibition of human UO31 cells assessed as cell growth at 10 uM incubated for 48 hrs by sulforhodamine B assay relative to control
# Assay type: functional
# Conditions: UO-31, 48 h, read-out: Activity
row,SMILES,growth at 10 µM [%]
1,COc1cc2cc(Oc3ccc(NC(=O)Nc4cccc(C(F)(F)F)c4)cc3)c(C)nc2cc1OC,11.3

# Test system: SK-MEL-2
# Experiment: Growth inhibition of human SK-MEL-2 cells assessed as cell growth at 10 uM incubated for 48 hrs by sulforhodamine B assay relative to control
# Assay type: functional
# Conditions: SK-MEL-2, 48 h, read-out: Activity
row,SMILES,growth at 10 µM [%]
1,COc1cc2cc(Oc3ccc(NC(=O)Nc4cccc(C(F)(F)F)c4)cc3)c(C)nc2cc1OC,-35.8
